Values belong to the compound of their own block, whether it stands above or below them. Non-standard residues stand in square brackets, D forms with d. Residues, ends and D or L forms follow the SMILES beside them. pY = N[C@@H](Cc1ccc(OP(=O)(O)O)cc1)C(=O)O
Tests used:
Grb2-SH2 domain [1] = target: T1, Grb2-SH2 domain (Homo sapiens, UniProt P62993); experiment: 2D 1H double-quantum (DQ) NMR screening of compound mixtures with and without the protein; format: binding; details: 25°C, pH 6.2; for identification as ligand by comparison of 2D DQ spectra and 2D DQ difference spectrum: mixture 2, 300 µM each compound, 50 µM protein (6:1)
T1 construct: The SH2 domain of Grb2 was expressed in E. coli as GST fusion proteins; GST (cleaved yes); made in house; host or cells: E. coli
Description: The feasibility of the invention in identifying ligands was tested with mixtures of compounds against the Grb2-SH2 domain. […] Figure 2 illustrates the DQ fingerprint region of a compound mixture (mixture 1) recorded with the pulse sequence of Figure 1a in the absence (a) and in the presence (b) of the protein. […] The NH protein resonances are not visible in Figure 2 (b) due to their short T (SQ)/(2) [formula] and T^DQ and the lower protein concentration (50 µM). The protein aromatic resonances have a longer T (SQ)/(2) [formula] and T^DQ compared to the amide resonances and their presence in the DQ spectrum may interfere with the observation of the ligand signals. Figure 3(a) illustrates the aromatic region of the 2D relaxation weighted DQ spectrum for mixture 1. Figures 3 (b) and (c) depict the same spectral region of the 2D DQ and relaxation weighted DQ spectrum of mixture 1 in the presence of the Grb2 SH2 domain, respectively. […] The large linewidth of all the protein resonances and the antiphase character of the DQ multiplets along ω2 results in complete cancellation of the positive and negative lobes. […] Only the compound resonances that display changes in intensity or chemical shift in the presence of the protein will be visible in the difference spectrum.
All the spectra were acquired at 25°C with the pulse sequences of Figure 1 using a Varian Inova 600 MHz spectrometer equipped with a 5 mm triple-resonance inverse probe and actively shielded x, y, and z- gradient coils. The DQ spectra were collected using 8 to 32 transients for each of the 256 t1 increments (128 t1 values for both the echo and antiecho pathway selections) and with 2048 points in t2. The data were multiplied with a cosine window function in both dimensions prior to the Fourier transformation.
The excitation DQ period τ was 42 ms long and the angle β of the detection pulse was set to 45° and 135° for the antiecho and echo coherence pathway selection, respectively. The coherence selection gradients G1 to G3 were set at the magic angle using only the x and z components of the gradients. The first two PFGs applied at the beginning and end of the excitation double-quantum period were weak gradients for radiation damping suppression. The 2D spectral differencing was performed with the software provided by Varian. The scaling factor used in the examples reported here was -1. However it can be adjusted manually for allowing small variations in concentration of the protein-ligand mixture and ligand mixture solutions.

Grb2-SH2 domain [2] = experiment: 2D 1H double-quantum NMR screening of compound mixtures for ligand binding; details: mixture 2, each compound 300 µM, protein 50 µM (6:1), 25°C, pH 6.2
Description: From a practical point of view, the steps involved in the detection of binding are preferably the following: • a) mixing together from 1 to n chemical compounds not interacting with each other; • b) recording a two-dimensional ^1H DQ or DQC (refocussed or not) relaxation weighted DQ spectrum (preferentially version with PFG) for the said compound mixture in the absence of the target biomolecule; • c) mixing the said compound mixture with the target biomolecule where each of the molecules comprising the mixture is preferably present at a molar ratio to the target biomolecule of about 1:1 to about 20:1 • d) recording a two-dimensional ^1H DQ or DQC (refocussed or not) relaxation weighted DQ spectrum (preferentially version with PFG) for the said compound mixture in the presence of the target biomolecule; • e) comparing the spectra recorded in steps b) and d) to detect which, if any of the chemical entities of the mixture, has interacted with the target biomolecule; and, optionally • f) recording a two-dimensional ^1H DQ or DQC (refocussed or not) relaxation weighted DQ spectrum (preferentially version with PFG) for each of the compounds which have been detected in step (e) above, with and without the target protein.
The feasibility of the invention in identifying ligands was tested with mixtures of compounds against the Grb2-SH2 domain. […]

T1 sequence (P62993 60-152 limits assumed): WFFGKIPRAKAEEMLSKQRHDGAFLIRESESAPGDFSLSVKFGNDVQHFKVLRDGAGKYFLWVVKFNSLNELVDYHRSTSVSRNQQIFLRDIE

identification as ligand by comparison of 2D DQ spectra (Grb2-SH2 domain [1]; mixture 1, 100 µM each compound, 50 µM protein (2:1)): ligand for Grb2-SH2
Compound: Ac-(N-Me)Phe(p-CH2PO3H2)-Val-Asn-NH-CH2-CH(CH3)2

identification as ligand by comparison of 2D DQ spectra and 2D DQ difference spectrum (Grb2-SH2 domain [1]): potent ligand
Compound: Ac-Tyr(PO3H2)-Val-NH-CH2-CH2-CONH2

identification as ligand by comparison of 2D DQ spectra and 2D DQ difference spectrum (Grb2-SH2 domain [1]): do not interact with the protein
Compound: Ac-Tyr-Val-Asn-Val-OH (Ac-YVNV-OH)

Further lines, the compound ahead of its results:

Compound: CC(=O)N[C@@H](Cc1ccc(OP(=O)(O)O)cc1)C(=O)N[C@H](C(N)=O)C(C)C [Ac-Tyr(PO3H2)-Val-NH2] (Ac-[pY]-Val-NH2)
identification as ligand by comparison of 2D DQ spectra and 2D DQ difference spectrum (Grb2-SH2 domain [1]): potential very weak ligand
identification as ligand by comparison of 2D DQ spectra and 2D DQ difference spectrum (Grb2-SH2 domain [1]; listed as compound B): possible weak interaction

Compound: c1ccc2[nH]ccc2c1 [Indole, indole]
identification as ligand (2D DQ spectra and 2D DQ difference spectrum with/without protein) (Grb2-SH2 domain [2]): do not interact with the protein
